Experimental data from US10617622B2, “Hair restoration and/or hair growth promoting composition containing soyasaponin” (AMOREPACIFIC CORPORATION, priority 2015, dated 2020).

Experiments:
[1] = tested on: dermal papilla cells (DPC); experiment: Expression of hair growth factor VEGF in dermal papilla cells (VEGF ELISA); format: cell-based, human; details: 20 ppm, 24 hours
Method: In order to evaluate the degree of expression of vascular endothelial growth factor (VEGF) which is a growth factor necessary for transition of hair into the anagen phase as a growth factor necessary for angiogenesis by soyasaponin Aa, an in vitro system was applied to treat the soyasaponin Aa, and the activity thereof was evaluated. For the experiment, 4×10^5 dermal papilla cells (DPC) (P.11) of a person was seeded in a 12-well plate and cultured in DMEM (Dulbecco's modified Eagle's medium; GibcoBRL, Gaithersburg, Md., USA) containing 10% FBS (fetal bovine serum) overnight. After the culture, the cells were treated with soyasaponin Aa at 20 ppm. DMSO was used as a negative control. After 24 hours, the mixing solution with treated soyasaponin Aa was collected, and the degree of VEGF expression by the soyasaponin Aa was confirmed using VEGF ELISA (Vascular endothelial growth factor Enzyme-Linked Immunosorbent Assay; R&D biosystems).

[2] = tested on: human dermal papilla cell line; experiment: Proliferation effect on hair follicle dermal papilla cells (WST-1 kit); format: cell-based; details: for hDPc proliferation (%): 24 hours after treatment, control = 100
Method: First, in the present invention, a human dermal papilla cell line was used (obtained from Prof. Kwan Oh Sang of dermatology in Seoul National University Hospital). The cell line was cultured for 24 hours in an incubator maintained at 5% CO2, 37° C. using DMEM (Dulbecco's modified Eagle's medium; Gibco BRL, Gaithersburg, Md., USA) containing 10% FBS, and then independently treated with soyasaponin Aa at 1 ppm, 10 ppm, and 20 ppm. DMSO was used as a negative control. Cell proliferation (%) was measured using a WST-1 kit (Roche) 24 hours after the treatment with the test materials.

[3] = tested on: human hair follicle organ; experiment: Hair growth promoting effect using human hair follicle organ culture; format: cell-based; details: for Average growth length (mm): 8 days after the treatment, hair follicles of a person
Method: The hair follicle organ was isolated from the scalp tissue of the occipital region of a person one at a time, and cultured in William's E medium (containing L-glutamine (2 mM), insulin (10 μg/ml), hydrocortisone (40 ng/ml), antibiotics (1%) antimycotic (1%)).
The hair follicles grown on the third day after culturing were selected and cut into 3 mm. As for the selected hair follicle tissues, those without drug treatment were used as a control group, and the hair follicle tissues were each treated with soyasaponin Aa at 1 ppm, 5 ppm, and 10 ppm. Then, the hair length was measured 8 days after the treatment.

CC(=O)O[C@@H]1[C@@H](OC(C)=O)[C@H](O[C@@H]2[C@@H](O)[C@H](O[C@@H]3[C@H](O)C(C)(C)C[C@H]4C5=CC[C@@H]6[C@@]7(C)CC[C@H](O[C@@H]8O[C@H](C(=O)O)[C@@H](O)[C@H](O)[C@H]8O[C@@H]8O[C@H](CO)[C@H](O)[C@H](O)[C@H]8O[C@@H]8O[C@H](CO)[C@@H](O)[C@H](O)[C@H]8O)[C@](C)(CO)[C@@H]7CC[C@@]6(C)[C@]5(C)CC[C@@]34C)OC[C@@H]2O)OC[C@H]1OC(C)=O [Soyasaponin Aa, soyasaponin Aa]
increase of VEGF expression compared to the control group ([1]; dermal papilla cells): ≥ 4 times | VEGF (ng/ml) in culture medium ([1]; dermal papilla cells of a person, DMSO negative control): 16.7 ng/mL | hDPc proliferation (%) ([2]; 1 ppm): 119% | hDPc proliferation (%) ([2]; 10 ppm): 145% | rate of increase in dermal papilla cell proliferation compared with the control group ([2]; 20 ppm): ≥ 1.7 times | hDPc proliferation (%) ([2]; 20 ppm): 172% | Average growth length (mm) ([3]; 1 ppm): 1.71 mm | Average growth length (mm) ([3]; 5 ppm): 2.05 mm | hair length growth effect compared to the control group ([3]; 10 ppm): 1.5 times | Average growth length (mm) ([3]; 10 ppm): 2.46 mm
